Data from PubChem BioAssay (NCI).
Several values for one entry are separate records, joined by “and”; a condition that tells them apart may be missing. Equal values may be shown once.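 Following 48 hours of exposure in 96-well plates, responses at five concentrations were used to interpolate endpoints linearly. GI50 is the concentration that inhibits growth by half. TGI is the concentration that stops growth completely.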

Key:
Assay in all cases: NCI anticancer screen, dose series, 48 h
MDA-MB-231 breast = test system: MDA-MB-231 breast
UO-31 renal = test system: UO-31 renal
HS 578T breast = test system: HS 578T breast
SNB-19 CNS = test system: SNB-19 CNS
U251 CNS = test system: U251 CNS
EKVX NSCLC = test system: EKVX NSCLC
RXF 393 renal = test system: RXF 393 renal
SK-MEL-28 melanoma = test system: SK-MEL-28 melanoma
IGROV1 ovarian = test system: IGROV1 ovarian
LOX IMVI melanoma = test system: LOX IMVI melanoma

Row | SMILES | GI50 (MDA-MB-231 breast) | TGI (MDA-MB-231 breast) | GI50 (UO-31 renal) | TGI (UO-31 renal) | GI50 (HS 578T breast) | TGI (HS 578T breast) [µM] | GI50 (SNB-19 CNS) | TGI (SNB-19 CNS) | GI50 (U251 CNS) | TGI (U251 CNS) | GI50 (EKVX NSCLC) | TGI (EKVX NSCLC) | GI50 (RXF 393 renal) | TGI (RXF 393 renal) | GI50 (SK-MEL-28 melanoma) | TGI (SK-MEL-28 melanoma) | GI50 (IGROV1 ovarian) | TGI (IGROV1 ovarian) | GI50 (LOX IMVI melanoma) | TGI (LOX IMVI melanoma)
1 | COc1cc2c(cc1OC)C(=O)/C(=C/c1cccc(OCC(=O)c3ccccc3)c1)C2 | 23.8 µM | > 100 µM | 6.93 µM | > 100 µM | 13.1 µM | 75.2 | 25.7 µM | > 100 µM | 8.17 µM | > 100 µM | 33.5 µM | > 100 µM | 35.4 µM | > 100 µM | 58.4 µM | > 100 µM | 5.79 µM | > 100 µM | 18.3 µM | > 100 µM
2 | CNC(=O)c1cc(OC2CCC(NC(=O)Nc3ccc(Cl)c(C(F)(F)F)c3)CC2)ccn1 (centres undefined) | 3.23 µM | 15.9 µM | 7.09 µM | 21.7 µM | 11.6 µM | 63.1 | 7.91 µM | 32.2 µM | 6.81 µM | 23.4 µM | 7.46 µM | 58.7 µM | 10.5 µM | 24.5 µM | 11.4 µM | 24.6 µM | 13.4 µM | 39.6 µM | 4.96 µM | 22.2 µM
3 | Cc1ccc(CNc2c3ccccc3nc3ccccc23)cc1 | 1.8 µM | 4.52 µM | 1.12 µM | 3.17 µM | 2.46 µM | 6.6 | 3.33 µM | 14.2 µM | 2.65 µM | 10.4 µM | 2.06 µM | 8.04 µM | 1.68 µM | 3.41 µM | 1.84 µM | 4.16 µM | 1.88 µM | 5.56 µM | 1.48 µM | 2.84 µM
4 | COc1cc(/C(C#N)=C/c2ccc3c(c2OC)OCO3)cc2c1OCO2 | 0.753 µM | 19.4 µM | 2.09 µM | > 100 µM | 0.0448 µM | 0.4 | 0.236 µM | 20.4 µM | 0.11 µM | 14 µM | 0.652 µM | > 100 µM | 0.174 µM | 0.753 µM | 1.24 µM | > 100 µM | 0.165 µM | 42.3 µM | 0.07 µM | 20.3 µM
5 | CCN(CC)CCOc1nc2ccc(OC)cc2c2c1-c1ccc(OC)cc1C2=O | 1.54 µM | 4.1 µM | 0.361 µM | 1.85 µM | 1.48 µM | 6.93 | 0.922 µM | 3.19 µM | 0.454 µM | 1.72 µM | 0.97 µM | 2.81 µM | 1.21 µM | 2.55 µM | 1.81 µM | 3.24 µM | 0.417 µM | 1.89 µM | 0.513 µM | 1.88 µM
6 | COc1ccc(-c2nn3ncccc3c2-c2ccnc(Nc3ccc(Cl)c(C(F)(F)F)c3)n2)cc1 | 8.56 µM | > 25 µM | 6.32 µM | > 25 µM | 9.15 µM | > 25 | 16 µM | > 25 µM | 12.4 µM | > 25 µM | 7.84 µM | > 25 µM | 5.66 µM | > 24 µM | 16.9 µM | > 25 µM | 9.48 µM | > 25 µM | 8.95 µM | > 25 µM
7 | CS(=O)(=O)CCNCc1nc(-c2ccc3ncnc(Nc4ccc(F)c(Cl)c4)c3c2)cs1 | 23.6 µM | > 25 µM | 6.81 µM | > 25 µM | 15.9 µM | > 25 | > 25 µM | > 25 µM | > 25 µM | > 25 µM | 0.0927 µM | > 25 µM | 9.75 µM | > 25 µM | > 20.2 µM | > 25 µM | 7.39 µM | > 25 µM | 14.1 µM | > 25 µM
8 | Cc1c2c(nn1-c1ccc(S(=O)(=O)NC(=S)Nc3ccccc3)cc1)-c1ccccc1CC2 | > 50 µM | > 50 µM | > 50 µM | > 50 µM | 44.6 µM | > 50 | > 50 µM | > 50 µM | 39.6 µM | > 50 µM | > 50 µM | > 50 µM | > 50 µM | > 50 µM | > 50 µM | > 50 µM | 20.6 µM | > 50 µM | 25.8 µM | > 50 µM
9 | C=C1CC2(OC1=O)C(=O)N(CCCCCCCN1C(=O)C3(CC(=C)C(=O)O3)c3ccccc31)c1ccccc12 (centres undefined) | 1.18 µM | 3.49 µM | 3.44 µM | 9.95 µM | 5.92 µM | 32.3 | 8.52 µM | 22 µM | 5.81 µM | 12.4 µM | 9.35 µM | 19.3 µM | 0.86 µM | 2.06 µM | 1.94 µM | 7.3 µM | 0.966 µM | 2.29 µM | 0.763 µM | 1.54 µM
10 | C=C1C(=O)O[C@H]2[C@H]1CC/C(COC(=O)c1cc3cc(F)ccc3[nH]1)=C\CC[C@@]1(C)O[C@@H]21 | 1.59 µM | 3.5 µM | 1.2 µM | 2.54 µM | 2.95 µM | 18.8 | 5.04 µM | 21 µM | 1.82 µM | 3.57 µM | 1.58 µM | 3.71 µM | 1.47 µM | 2.87 µM | 1.79 µM | 3.69 µM | 1.44 µM | 3.14 µM | 1.05 µM | 2.46 µM
11 | N#Cc1c(-c2nc3ccccc3s2)c(=O)oc2cc(O)ccc12 |  | 82.5 µM |  | 74.9 µM |  | > 100 |  | > 100 µM |  | > 100 µM |  | > 100 µM |  | > 100 µM |  | > 100 µM |  | > 100 µM |  | > 100 µM
12 | O=C(Nc1ccc(N2CCNCC2)cc1)c1[nH]ncc1Nc1ncnc2sc3c(c12)CCC3 | 0.333 µM | 2.04 µM | 0.431 µM | 1.84 µM | 0.0994 µM | 2.08 | 0.274 µM | 1.69 µM | 0.108 µM | 0.244 µM | 0.194 µM | 1.94 µM | 0.394 µM | 1.89 µM | 1 µM | 2.29 µM | 0.125 µM | 1.38 µM | 0.199 µM | 1.8 µM
13 | O=P(O)(CCP(=O)(O)c1ccccc1)c1ccccc1 |  | > 100 µM |  | > 100 µM |  | > 100 |  | > 100 µM |  | > 100 µM |  | > 100 µM |  | > 100 µM |  | > 100 µM |  | > 100 µM |  | > 100 µM
14 | COc1ccc2c(c1)/C(=C\c1c(C)nc3sc(C)cn13)C(=O)N2C | 4.59 µM | 65 µM | 10 µM | > 100 µM | 1.83 µM | 5.4 | 4.08 µM | > 100 µM | 3.69 µM | 31.2 µM | 16.7 µM | 73.8 µM | 4.84 µM | 48.3 µM | 7.26 µM | 35.5 µM | 9.74 µM | > 100 µM | 4.4 µM | 26.2 µM
15 | Cc1ncc(CN=Cc2ccc(Cl)cc2)c(N)n1 |  | > 100 µM |  | > 100 µM |  | > 100 |  | > 100 µM |  | > 100 µM |  | > 100 µM |  | > 100 µM |  | > 100 µM |  | > 100 µM |  | > 100 µM
16 | CNc1ccc2nc3ccc(=[N+](C)C)cc-3sc2c1 | 0.426 µM and 0.345 µM | 5.59 µM and 3.63 µM | 2.74 µM and 2.2 µM | 19 µM and 16.3 µM | 4.68 µM and 1.98 µM |  | 0.747 µM and 0.324 µM | 8.83 µM and 6.11 µM | 0.412 µM and 0.267 µM | 5.6 µM and 1.68 µM | 4.63 µM and 0.518 µM | 23.4 µM and 14.5 µM | 3.53 µM and 5.32 µM | 11.4 µM and 14.3 µM | 4.25 µM and 1.55 µM | 14.8 µM and 9.27 µM | 2.36 µM and 1.28 µM | 10.5 µM and 4.06 µM | 0.443 µM and 0.368 µM | 4.47 µM and 2.15 µM
17 | COc1cc(O)c([C@@H]2C[C@H](CCc3ccc(O)cc3)O[C@H](c3ccc(O)cc3)C2)c(O)c1C(=O)/C=C/c1ccc(O)cc1 | 2.5 µM | 6.23 µM | 2.9 µM | 7.96 µM | 2.53 µM | 15.4 | 3.37 µM | 10.6 µM | 2.81 µM | 9.22 µM | 4.1 µM | 16.7 µM | 2.48 µM | 5.64 µM | 3.28 µM | 12 µM | 2.2 µM | 5.44 µM | 1.93 µM | 3.63 µM
18 | CCOC(=O)c1ccc(NC(=O)N2CC(C)OC(C)C2)cc1 (centres undefined) | > 100 µM | > 100 µM | > 100 µM | > 100 µM | > 100 µM | > 100 | > 100 µM | > 100 µM | > 100 µM | > 100 µM | > 100 µM | > 100 µM | > 100 µM | > 100 µM | > 100 µM | > 100 µM | > 100 µM | > 100 µM | > 100 µM | > 100 µM
